# Experimental data reported in US3951952A, “Broad spectrum antibiotics” (Pfizer Inc., priority 1973, dated 1976).
# Read-outs that look alike come from different tables or passages of the source.
# Tests used:
# [1] = system: Kleb. pneumoniae 53A009; test: In vitro MIC, Kleb. pneumoniae 53A009; type: cell-based
# Excerpt: (§1) The in vitro activity of the herein described compounds renders them useful for topical application in the form of ointments, creams and the like, or for sterilization purposes, e.g., sick-room utensils.
# (§2) Table I compares the in vitro profile of 6-[D-2-phenyl-2-(amidinopropionamido)acetamido]penicillanic acid (PAP) with ampicillin (AMP) and carbenicillin (CAR).
# [2] = system: Kleb. pneumoniae 53A015; test: In vitro MIC, Kleb. pneumoniae 53A015; type: cell-based; conditions: Klebsiella pneumoniae, Table I, nutrient broth
# Excerpt: as §1, §2
# [3] = system: P. vulgaris 57A059; test: In vitro MIC, P. vulgaris 57A059; type: cell-based; conditions: Proteus vulgaris
# Excerpt: as §1, §2
# [4] = system: Ser. marcescens 63A001; test: In vitro MIC, Ser. marcescens 63A001; type: cell-based
# Excerpt: as §1, §2
# [5] = system: Ps. aeruginosa 52A173; test: In vitro MIC, Ps. aeruginosa 52A173; type: cell-based; conditions: Pseudomonas aeruginosa, Table I, nutrient broth
# Excerpt: as §1, §2
# [6] = system: E. coli 51A266; test: In vitro MIC, E. coli 51A266; type: cell-based
# Excerpt: as §1, §2
# [7] = system: A. aerogenes 55A002; test: In vitro MIC, A. aerogenes 55A002; type: cell-based; conditions: Klebsiella aerogenes, Table I, nutrient broth
# Excerpt: as §1, §2
# [8] = system: Ps. aeruginosa 52A104; test: In vitro MIC, Ps. aeruginosa 52A104; type: cell-based
# Excerpt: as §1, §2
# [9] = system: E. coli 51A002; test: In vitro MIC, E. coli 51A002; type: cell-based; conditions: Escherichia coli, Table I, nutrient broth
# Excerpt: as §1, §2
# [10] = system: Ps. aeruginosa 52A490; test: In vitro MIC, Ps. aeruginosa 52A490; type: cell-based
# Excerpt: as §1, §2
# [11] = system: S. aureus; test: In vitro MIC, S. aureus; type: cell-based; conditions: Staphylococcus aureus, Table I, nutrient broth
# Excerpt: as §1, §2
# [12] = system: E. coli 51A266; test: In vivo protection of mice against experimental E. coli 51A266 infection; conditions: doses 0.5, 4 and 24 hours; for % Protection (% survivors): Table II; for % Survivors: Table IV
# Procedure: Table II presents the in vivo comparison data for the three compounds contained in Table I aganst several experimental infections in mice.
# The values (% survivors) are obtained under standard conditions known to those skilled in the art. For the E. coli organism, the test compound is administered to the infected mice by a multiple dosing regimen in which the first dose is given 0.5 hour after inoculation and is repeated 4 and 24 hours later.
# Table IV presents in vivo comparison data for the four compounds in Table III against E. coli infections in mice.
# The values, reported as % survivors, are obtained under standard conditions familiar to those skilled in the art. The test compound is administered to the infected mice by a multiple dosing regimen in which the first dose is given 0.5 hour after inoculation and is repeated 4 and 24 hours later.
# [13] = system: A. aerogenes 55A004; test: In vitro MIC, A. aerogenes 55A004; type: cell-based; conditions: Klebsiella aerogenes, Table I, nutrient broth
# Excerpt: as §1, §2
# [14] = system: S. aureus 01A005; test: In vitro MIC, S. aureus 01A005; type: cell-based; conditions: Table III
# Excerpt: as §1, §2
# [15] = system: P. mirabilis 57C015; test: In vitro MIC, P. mirabilis 57C015; type: cell-based; conditions: Table III
# Excerpt: as §1, §2
# [16] = system: A. aerogenes; test: In vitro MIC, A. aerogenes (strain not given); type: cell-based; conditions: Table III
# Excerpt: as §1, §2
# [17] = system: gram-negative bacteria; conditions: in words, U.S. Pat. No. 3,142,673, cited from earlier work
# [18] = Klebsiella pneumoniae, Table I, nutrient broth, read-out: MIC
# [19] = Table I, P. vulgaris 57A059, nutrient broth, read-out: MIC
# [20] = Serratia marcescens, Table I, nutrient broth, read-out: MIC
# [21] = Escherichia coli, Table I, E. coli 51A266, nutrient broth, read-out: MIC
# [22] = Pseudomonas aeruginosa, Table I, nutrient broth, read-out: MIC
Structure (SMILES),"MIC [1, 18] [µg/mL]",MIC [2] [µg/mL],"MIC [4, 20] [µg/mL]",MIC [5] [µg/mL],MIC [7] [µg/mL],"MIC [8, 22] [µg/mL]",MIC ([1]; Table III) [µg/mL],MIC ([4]; Table III) [µg/mL],"MIC ([6]; Table III, E. coli 51A266) [µg/mL]",MIC [14] [µg/mL],MIC ([8]; Table III) [µg/mL],"% Survivors ([12]; PO, 25 mg./kg.) [%]","% Survivors ([12]; PO, 50 mg./kg.) [%]","% Survivors ([12]; PO, 200 mg./kg.) [%]","% Survivors ([12]; SC, 25 mg./kg.) [%]","% Survivors ([12]; SC, 50 mg./kg.) [%]","% Survivors ([12]; SC, 200 mg./kg.) [%]",MIC [15] [µg/mL],MIC ([10]; Table III) [µg/mL],MIC [16] [µg/mL],other results
"CC1(C)S[C@@H]2[C@H](NC(=O)[C@H](NC(=O)CCC(=N)N)c3ccccc3)C(=O)N2[C@H]1C(=O)O [PAP, 6-[D-2-phenyl-2-(amidinopropionamido)acetamido]penicillanic acid]",25,> 200,3.12,0.78,100,12.5,–,–,–,–,–,–,–,–,–,–,–,–,–,–,"MIC [3, 19]: 1.56 µg/mL; MIC [6, 21]: 1.56 µg/mL; MIC [9]: 200 µg/mL; MIC [10, 22]: 1.56 µg/mL"
"CC1(C)S[C@@H]2[C@H](NC(=O)[C@H](N)c3ccccc3)C(=O)N2[C@H]1C(=O)O [AMP, ampicillin, reference compound]",100,250,200,38,100,200,–,–,–,–,–,–,–,–,–,–,–,–,–,–,"MIC [3, 19]: 6 µg/mL; MIC ([6]; Escherichia coli, 51A266): 3.12 µg/mL; MIC [11]: 0.09 µg/mL; MIC [9]: 200 µg/mL; % Protection (% survivors) ([12]; PO, 50 mg./kg.): 80%; % Protection (% survivors) ([12]; PO, 200 mg./kg.): 90%; % Protection (% survivors) ([12]; SC, 50 mg./kg.): 80%; % Protection (% survivors) ([12]; SC, 200 mg./kg.): 90%; MIC [13]: 5 µg/mL; MIC [10, 22]: 0.78 µg/mL"
CC1(C)S[C@@H]2[C@H](NC(=O)C(NC(=O)CNC(=N)c3ccccc3)c3ccccc3)C(=O)N2[C@H]1C(=O)O (stereo partly drawn) [X = H],–,–,–,–,–,–,100,12.5,12.5,0.78,25,0,0,10,10,70,90,12.5,12.5,25,–
"CC1(C)S[C@@H]2[C@H](NC(=O)C(C(=O)O)c3ccccc3)C(=O)N2[C@H]1C(=O)O (stereo partly drawn) [CAR, carbenicillin]",200,> 200,25,75,25,50,–,–,–,–,–,–,–,–,–,–,–,–,–,–,"utility via oral administration ([17]; oral): limited utility via oral administration; efficacy against gram-negative bacteria ([17]; parenteral route): greater efficacy against gram-negative bacteria via the parenteral route of administration; MIC ([3]; 57A059): 12.5 µg/mL; MIC [6, 21]: 3.12 µg/mL; MIC [11]: 1.56 µg/mL; MIC [9]: 200 µg/mL; MIC [13]: 50 µg/mL; MIC [10, 22]: 0.6 µg/mL"
CC1(C)S[C@@H]2[C@H](NC(=O)C(NC(=O)CNC(=N)c3ccc(Cl)cc3)c3ccccc3)C(=O)N2[C@H]1C(=O)O (stereo partly drawn) [X = Cl],–,–,–,–,–,–,12.5,6.25,0.78,0.39,25,0,0,0,50,60,70,3.12,12.5,3.12,–
CC1(C)S[C@@H]2[C@H](NC(=O)C(NC(=O)CNC(=N)c3ccc(Br)cc3)c3ccccc3)C(=O)N2[C@H]1C(=O)O (stereo partly drawn) [X = Br],–,–,–,–,–,–,12.5,6.25,0.39,0.39,25,10,0,0,50,60,90,3.12,6.25,3.12,–
CC1(C)S[C@@H]2[C@H](NC(=O)C(NC(=O)CNC(=N)c3ccc(F)cc3)c3ccccc3)C(=O)N2[C@H]1C(=O)O (stereo partly drawn) [X = F],–,–,–,–,–,–,25,6.25,1.56,0.39,12.5,10,0,10,50,70,90,3.12,3.12,25,–
